# Source: ChEMBL document CHEMBL3885881, “DrugMatrix”
# Species on record: Rattus norvegicus
# Assay: DrugMatrix - Regimen: Daily Repeat
# Format: toxicity, organism-based, Sprague-Dawley
# Design: regimen Daily Repeat, gender Male, age 6-8 weeks
# Settings: in vivo, po, route oral GAVAGE, vehicle 100 % WATER; for ABSOLUTE BASOPHIL / ABSOLUTE EOSINOPHIL / ABSOLUTE LYMPHOCYTE / ABSOLUTE MONOCYTE / ABSOLUTE SEGMENTED NEUTROPHIL / BASOPHIL / EOSINOPHIL / ERYTHROCYTE COUNT / HEMATOCRIT / HEMOGLOBIN / LEUKOCYTE COUNT / LYMPHOCYTE / MEAN CORPUSCULAR HEMOGLOBIN / MEAN CORPUSCULAR HEMOGLOBIN CONCENTRATION / MEAN CORPUSCULAR VOLUME / MONOCYTE / NEUTROPHIL / NUCLEATED RED BLOOD CELLS / PLATELET COUNT: tissue Blood; for ALANINE AMINOTRANSFERASE / ALBUMIN / ALKALINE PHOSPHATASE / ASPARTATE AMINOTRANSFERASE / BLOOD UREA NITROGEN / CARBON DIOXIDE / CHLORIDE / CHOLESTEROL / CREATINE PHOSPHOKINASE / CREATININE / GLUCOSE / LACTATE DEHYDROGENASE / LIPASE / PHOSPHORUS / POTASSIUM / SODIUM / TOTAL BILIRUBIN / TOTAL PROTEIN / URIC ACID: tissue Plasma
# [1] = 900 mg/kg, 120 h, dose level Low, time 5 day
# [2] = 5000 mg/kg, 72 h, dose level High, time 3 day
# [3] = 5000 mg/kg, 120 h, dose level High, time 5 day
structure (smiles),measurement,setting,value
Clc1ccc(C(c2ccccc2Cl)C(Cl)Cl)cc1 (centres undefined) [MITOTANE],ABSOLUTE BASOPHIL,[1],0 CELLS/uL
same,ABSOLUTE EOSINOPHIL,[1],0 CELLS/uL
same,ABSOLUTE LYMPHOCYTE,[1],11920 CELLS/uL
same,ABSOLUTE MONOCYTE,[1],138 CELLS/uL
same,ABSOLUTE SEGMENTED NEUTROPHIL,[1],942 CELLS/uL
same,BASOPHIL,[1],0%
same,EOSINOPHIL,[1],0%
same,ERYTHROCYTE COUNT,[1],5.65 x10E6/uL
same,HEMATOCRIT,[1],36%
same,HEMOGLOBIN,[1],14.27 G/DL
same,LEUKOCYTE COUNT,[1],13 x10E3/uL
same,LYMPHOCYTE,[1],91.67%
same,MEAN CORPUSCULAR HEMOGLOBIN,[1],25.3 pg
same,MEAN CORPUSCULAR HEMOGLOBIN CONCENTRATION,[1],39.6 G/DL
same,MEAN CORPUSCULAR VOLUME,[1],63.73 fL
same,MONOCYTE,[1],1%
same,NEUTROPHIL,[1],7.33%
same,NUCLEATED RED BLOOD CELLS,[1],0 /100WBC
same,PLATELET COUNT,[1],1407.33 x10E3/uL
same,ALANINE AMINOTRANSFERASE,[1],52 u/L
same,ALBUMIN,[1],4.07 G/DL
same,ALKALINE PHOSPHATASE,[1],421.33 u/L
same,ASPARTATE AMINOTRANSFERASE,[1],89.67 u/L
same,BLOOD UREA NITROGEN,[1],13.67 mg/dL
same,CARBON DIOXIDE,[1],30.67 mmol/L
same,CHLORIDE,[1],100 MEQ/L
same,CHOLESTEROL,[1],71 mg/dL
same,CREATINE PHOSPHOKINASE,[1],382 u/L
same,CREATININE,[1],0.2 mg/dL
same,GLUCOSE,[1],148.67 mg/dL
same,LACTATE DEHYDROGENASE,[1],632.67 u/L
same,LIPASE,[1],11 u/L
same,PHOSPHORUS,[1],12.57 mg/dL
same,POTASSIUM,[1],6.42 MEQ/L
same,SODIUM,[1],142.8 MEQ/L
same,TOTAL BILIRUBIN,[1],0.13 mg/dL
same,TOTAL PROTEIN,[1],6.03 G/DL
same,URIC ACID,[1],2.17 mg/dL
same,ABSOLUTE BASOPHIL,[2],0 CELLS/uL
same,ABSOLUTE EOSINOPHIL,[2],124.33 CELLS/uL
same,ABSOLUTE LYMPHOCYTE,[2],15356 CELLS/uL
same,ABSOLUTE MONOCYTE,[2],296.33 CELLS/uL
same,ABSOLUTE SEGMENTED NEUTROPHIL,[2],556.67 CELLS/uL
same,BASOPHIL,[2],0%
same,EOSINOPHIL,[2],0.67%
same,ERYTHROCYTE COUNT,[2],5.76 x10E6/uL
same,HEMATOCRIT,[2],36.73%
same,HEMOGLOBIN,[2],14.3 G/DL
same,LEUKOCYTE COUNT,[2],16.33 x10E3/uL
same,LYMPHOCYTE,[2],94.67%
same,MEAN CORPUSCULAR HEMOGLOBIN,[2],24.83 pg
same,MEAN CORPUSCULAR HEMOGLOBIN CONCENTRATION,[2],38.93 G/DL
same,MEAN CORPUSCULAR VOLUME,[2],63.8 fL
same,MONOCYTE,[2],1.67%
same,NEUTROPHIL,[2],3%
same,NUCLEATED RED BLOOD CELLS,[2],0 /100WBC
same,PLATELET COUNT,[2],1407.33 x10E3/uL
same,ALANINE AMINOTRANSFERASE,[2],75.67 u/L
same,ALBUMIN,[2],3.93 G/DL
same,ALKALINE PHOSPHATASE,[2],512.67 u/L
same,ASPARTATE AMINOTRANSFERASE,[2],87 u/L
same,BLOOD UREA NITROGEN,[2],12.33 mg/dL
same,CARBON DIOXIDE,[2],32.67 mmol/L
same,CHLORIDE,[2],101 MEQ/L
same,CHOLESTEROL,[2],72.33 mg/dL
same,CREATINE PHOSPHOKINASE,[2],440.67 u/L
same,CREATININE,[2],0.19 mg/dL
same,GLUCOSE,[2],123.33 mg/dL
same,LACTATE DEHYDROGENASE,[2],189.33 u/L
same,LIPASE,[2],10.33 u/L
same,PHOSPHORUS,[2],11.37 mg/dL
same,POTASSIUM,[2],6.63 MEQ/L
same,SODIUM,[2],144.03 MEQ/L
same,TOTAL BILIRUBIN,[2],0.1 mg/dL
same,TOTAL PROTEIN,[2],6.13 G/DL
same,URIC ACID,[2],1.53 mg/dL
same,ABSOLUTE BASOPHIL,[3],0 CELLS/uL
same,ABSOLUTE EOSINOPHIL,[3],32.67 CELLS/uL
same,ABSOLUTE LYMPHOCYTE,[3],11464 CELLS/uL
same,ABSOLUTE MONOCYTE,[3],86.67 CELLS/uL
same,ABSOLUTE SEGMENTED NEUTROPHIL,[3],983.33 CELLS/uL
same,BASOPHIL,[3],0%
same,EOSINOPHIL,[3],0.33%
same,ERYTHROCYTE COUNT,[3],5.42 x10E6/uL
same,HEMATOCRIT,[3],34.3%
same,HEMOGLOBIN,[3],13.47 G/DL
same,LEUKOCYTE COUNT,[3],12.57 x10E3/uL
same,LYMPHOCYTE,[3],91.33%
same,MEAN CORPUSCULAR HEMOGLOBIN,[3],24.83 pg
same,MEAN CORPUSCULAR HEMOGLOBIN CONCENTRATION,[3],39.3 G/DL
same,MEAN CORPUSCULAR VOLUME,[3],63.2 fL
same,MONOCYTE,[3],0.67%
same,NEUTROPHIL,[3],7.67%
same,NUCLEATED RED BLOOD CELLS,[3],0 /100WBC
same,PLATELET COUNT,[3],1284 x10E3/uL
same,ALANINE AMINOTRANSFERASE,[3],63.67 u/L
same,ALBUMIN,[3],4.07 G/DL
same,ALKALINE PHOSPHATASE,[3],426.67 u/L
same,ASPARTATE AMINOTRANSFERASE,[3],73 u/L
same,BLOOD UREA NITROGEN,[3],15 mg/dL
same,CARBON DIOXIDE,[3],34.67 mmol/L
same,CHLORIDE,[3],97.33 MEQ/L
same,CHOLESTEROL,[3],99.67 mg/dL
same,CREATINE PHOSPHOKINASE,[3],400.67 u/L
same,CREATININE,[3],0.19 mg/dL
same,GLUCOSE,[3],133.33 mg/dL
same,LACTATE DEHYDROGENASE,[3],123.33 u/L
same,LIPASE,[3],11.33 u/L
same,PHOSPHORUS,[3],11.97 mg/dL
same,POTASSIUM,[3],6.85 MEQ/L
same,SODIUM,[3],141.7 MEQ/L
same,TOTAL BILIRUBIN,[3],0.2 mg/dL
same,TOTAL PROTEIN,[3],6.37 G/DL
same,URIC ACID,[3],1.57 mg/dL
